Assay results reported in patent US20120270844A1, “METHODS FOR TREATING ALZHEIMER'S DISEASE” (aFRAXis, Inc., priority 2009, published 2012).

System: C57/black 6 mice temporal cortex slices
Assay: Slice electrophysiology assay (LTP, theta-burst stimulation)
Type: cell-based
Conditions: 1 μM compound; temporal cortex slices of C57/black 6 mice
Method: coronal cortical slices (400 μm) containing temporal cortex from 2- to 3-month-old C57-Black-6 mice male littermates (from Elevage Janvier, FRANCE) are prepared and allowed to recover in oxygenated (95% O2 and 5% CO2) warm (30° C.) artificial cerebrospinal fluid (ACSF) containing 124 mM NaCl, 5 mM KCl, 1.25 mM, NaH2PO4, 1 mM MgCl2, 2 mM CaCl2, 26 mM NaHCO3, and 10 mM dextrose.
a 10 mM DMSO stock solution is prepared for each test compound and 100 μL aliquots are stored at −20° C. On the day of experiment an aliquot is thawed and vortexed for fresh solutions preparation. The final concentration of DMSO is adjusted to 0.1% all solutions, including control ACSF solution. […]
a stimulus is applied every 30 s with an intensity settled at 40% of the maximal amplitude responses. […] Potentiation of synaptic transmission is then monitored for an additional 40 minutes period. […]
following a 10 minutes control recording period (to verify baseline stability), the compound is perfused for 20 minutes. Then, LTP is triggered and the fEPSP amplitude will be recorded for an additional 40 minutes period in the presence of compound.
fEPSP amplitudes are measured as the difference between the baseline (before stimulation) and the maximal peak amplitude. The fEPSP are normalized as a percent of the mean averaged amplitude recorded over a 10 min control period, before compound application. […]

Compound | LTP compared to the baseline in a theta-burst stimulation protocol in the cortex
COc1cc(Nc2nccc(-c3ccc(NCCN)nc3)n2)cc(OC)c1OC [Compound A, N^1-(5-(2-(3,4,5-trimethoxyphenylamino)pyrimidin-4-yl)pyridin-2-yl)ethane-1,2-diamine] | increased LTP
CN1CCN(c2ccc(Nc3ncc4ccc(=O)n(C5CCCC5)c4n3)cc2)CC1 [Compound G, 8-cyclopentyl-2-(4-(4-methylpiperazin-1-yl)phenylamino)pyrido[2,3-d]pyrimidin-7(8H)-one] | increased LTP
